From patent US7232852B2, “Photopolymerizable compositions that include alicyclic/aromatic dioxiranes and novel dioxiranyl tetraoxaspiro [5.5] undecanes” (Curators of the University of Missouri, priority 2002, dated 2007) come the findings set out here.

Series [1] can be described thus: Solubility of TOSUs in oxirane coreactant systems. The series is classed as physicochemical. The following applies: 25° C.
Series [2] in a line: Photoinitiated solution homopolymerization of BMOCHM-TOSU (FTIR, gel point). The note with it: post irradiation, 20 wt % in methylene chloride. The format is physicochemical. Here is the method: The effect of irradiation time on the photoinitated homopolymerization of BMOCHM-TOSU monomer (20 wt % in methylene chloride) was evaluated by gel point determination and by FTIR spectroscopy. Selected IR absorption bands in the reaction mixture characteristic of hydroxyl, carbonyl and oxirane groups were monitored as a function of irradiation time. […] These observations indicate the possibility of homopolymer formation. The mixture gelled 1.5 min post irradiation.

For `C1=CCC(CC2COC3(OC2)OCC(CC2CC=CCC2)CO3)CC1` (stereo not shown) [BCHEM, 3,9-Bis(cyclohex-3-enylmethyl)-1,5,7,11-tetraoxaspiro[5,5]undecane], in series [1], the “Solubility in oxirane base UVR 6105” value is 15–25 wt % and the “Solubility in oxirane base UVR 6105/PTHF (80/20)” value was determined as 25 wt %.

Take `CC1CC2OC2CC1CC1COC2(OC1)OCC(CC1CC3OC3CC1C)CO2` (stereo not shown) [BMOCHM, 3,9-bis[(4-methyl-7-oxabicyclo[4.1.0]hept-3-yl)methyl]-1,5,7,11-tetraoxaspiro[5,5]undecane]: in series [1], the “Solubility in oxirane base BOCPE” value is given as under 10 wt %, the “Solubility in oxirane base UVR 6105” value turned out to be 30 wt % and the “Solubility in oxirane base UVR 6105/PTHF (80/20)” value stood at 25 wt %. The “gel point (mixture gelled)” value in series [2] came to 1.5 min.

With `C1CC2OC2CC1CC1COC2(OC1)OCC(CC1CCC3OC3C1)CO2` (stereo not shown) [BOCHM, 3,9-bis[(7-oxabicyclo[4.1.0]hept-3-yl)methyl]-1,5,7,11-tetraoxaspiro[5.5]undecane], in series [1], the “Solubility in oxirane base BOCPE” value is under 10 wt %, the “Solubility in oxirane base UVR 6105” value is given as 30 wt % and the “Solubility in oxirane base UVR 6105/PTHF (80/20)” value worked out at 25 wt %.

In the case of `CCC1(CC)COC2(COC3(CCC4OC4C3)OC2)OC1` (stereo not shown) [DEODSH, 5,5-diethyl-19-oxdispiro[1,3-dioxane-2,5′-1,3-dioxane-2′,3″-bicyclo[4.1.0]heptane]], in series [1], the “Solubility in oxirane base BOCPE” value is listed as over 10 wt % and the “Solubility in oxirane base UVR 6105/PTHF (80/20)” value was 40 wt %.

As to `C1CC2(COC3(OC2)OCC2(CCC4OC4C2)CO3)CC2OC12` (stereo not shown) [DOTSHH, 7,26-dioxatrispiro[bicycle[4.1.0]heptane-3,5′-1,3-dioxane-2′2″-1,3-dioxane-5″,4′″-bicyclo[4.1.0]heptane]], in series [1], the “Solubility in oxirane base BDDGE/PTHF (80/20)” value worked out at 5 wt %, the “Solubility in oxirane base BOCPE” value was 10 wt % and the “Solubility in oxirane base UVR 6105/PTHF (80/20)” value is under 5 wt %.

Take `C1OC2(OCC13CC1OC1C3)OCC1(CO2)CC2OC2C1` (stereo not shown) [DOTSHX, 6,24-dioxatrispiro[bicyclo[3.1.0]hexane-3.5′-1,3-dioxane-2.2′-1,3-dioxane-5″3′″-bicyclo[3.1.0]hexane]]: in series [1], the “Solubility in oxirane base BDDGE/PTHF (80/20)” value was under 5 wt % and the “Solubility in oxirane base BOCPE” value was under 5 wt %.
